# Data from patent publication US11814367B2, “Inhibitors of glycogen synthase 1 (GYS1) and methods of use thereof” (Maze Therapeutics, Inc., priority 2021, dated 2023).
# What was measured:
# [1] = biological target: hGYS1 enzyme (recombinant hGYS1/GN1 protein) (Homo sapiens (Human), UniProt P13807); experiment: GYS1 coupled enzyme assay (PK/LDH); assay type: biochemical; settings: hGYS1/GN1 50 nM, UDP-Glucose 0.8 mM, G6P 1 mM; geometric mean of at least 2 runs
# [2] = tested on: hGYS1 enzyme / glycogen synthesis in HeLa cells; experiment: GYS1 cell based assay (glycogen synthesis, Glucose-glo); parameters: species or system human; settings: 24 h incubation, 20 mM glucose, geometric mean of at least 2 runs
# Text: The GYS1 cell based assay is a bioluminescent assay that quantifies the glucose resulting from glycogen digestion; the quantified glucose is an indirect measure of GYS1 glycogen synthesis. Newly synthesized glycogen is digested using Glucoamylase; the resulting glucose is quantified by using the Glucose-glo assay kit from Promega. Glucose-glo works by coupling glucose oxidation and NADH production with a bioluminescent system that is activated with NADH. Glucose is oxidized by Glucose dehydrogenase and the reaction reduces NAD+ to NADH; NADH activates Reductase which reduces a pro-luciferin Reductase Substrate to luciferin. Luciferin is detected in a luciferase reaction using Ultra-Glo rLuciferase and ATP, and the luminesce produced is proportional to the glucose in the sample. The luminescence is measured as a single point read in a plate reader.
# Compounds that inhibit the hGYS1 enzyme and, subsequently, the glycogen synthesis in cells, were tested using assay ready plates (white, clear bottom 384 well plates) in a final DMSO reaction volume of 1% DMSO. Compounds in the assay ready plates were mixed with media with no additives, except for 20 mM glucose prior to cell addition. HeLa cells were starved in media with no additives, except for 1× Glutamax for 24 h. Starved HeLa cells were plated, in a 1:1 ratio to the media in the assay ready plate and incubated for 24 h at 37° C. and 5% C02. Cells were washed in 1×PBS buffer and lysed in lysis buffer containing 50% 1×PBS and 25% 0.3 N HCl of the final volume in the well or reaction volume; cells were incubated with lysis buffer for 10 minutes and quenched with the remaining 25% of the reaction volume that consisted of 450 mM Tris pH 8.0. Lysates were mixed in a 1:1 ratio with Glucoamylase in 100 mM Sodium Acetate buffer, pH 5.3; the mixture was incubated for 1 h at 37° C. The digested lysate was mixed in a 1:1 ratio with Glucose-glo detection mixture as per vendor recommendations (Luciferase detection buffer, Reductase, Reductase substrate, Glucose dehydrogenase, and NAD) in read-out plates (solid white 384-well plates) and incubated for 1 h at RT. The plates were read using a plate reader with luminescence capabilities. Each compound concentration Relative Luminescence Unit (RLU) was averaged and normalized to the average RLU of the positive and negative controls to obtain a percentage inhibition. The normalized data vs. concentration was plotted; to determine the half-maximal concentration (IC50), the Levenberg-Marquardt algorithm was used to fit a Hill equation to the dose response data.
# The results are shown in Table 3 below, which reports the IC50 of each compound. Unless otherwise specified, IC50 values are reported as the geometric mean of at least 2 assay runs on separate days. As shown in the table below, the compounds of the present invention are potent inhibitors of human GYS1. Unless otherwise specified, IC50 values are reported as the geometric mean of at least two assay runs on separate days. Each run represents the average of a technical replicate, where each compound was assayed twice in the same plate. A superscript “#” symbol in Table 3 indicates results from a single assay run.
# hGYS1 enzyme (recombinant hGYS1/GN1 protein), sequence (P13807 whole entry): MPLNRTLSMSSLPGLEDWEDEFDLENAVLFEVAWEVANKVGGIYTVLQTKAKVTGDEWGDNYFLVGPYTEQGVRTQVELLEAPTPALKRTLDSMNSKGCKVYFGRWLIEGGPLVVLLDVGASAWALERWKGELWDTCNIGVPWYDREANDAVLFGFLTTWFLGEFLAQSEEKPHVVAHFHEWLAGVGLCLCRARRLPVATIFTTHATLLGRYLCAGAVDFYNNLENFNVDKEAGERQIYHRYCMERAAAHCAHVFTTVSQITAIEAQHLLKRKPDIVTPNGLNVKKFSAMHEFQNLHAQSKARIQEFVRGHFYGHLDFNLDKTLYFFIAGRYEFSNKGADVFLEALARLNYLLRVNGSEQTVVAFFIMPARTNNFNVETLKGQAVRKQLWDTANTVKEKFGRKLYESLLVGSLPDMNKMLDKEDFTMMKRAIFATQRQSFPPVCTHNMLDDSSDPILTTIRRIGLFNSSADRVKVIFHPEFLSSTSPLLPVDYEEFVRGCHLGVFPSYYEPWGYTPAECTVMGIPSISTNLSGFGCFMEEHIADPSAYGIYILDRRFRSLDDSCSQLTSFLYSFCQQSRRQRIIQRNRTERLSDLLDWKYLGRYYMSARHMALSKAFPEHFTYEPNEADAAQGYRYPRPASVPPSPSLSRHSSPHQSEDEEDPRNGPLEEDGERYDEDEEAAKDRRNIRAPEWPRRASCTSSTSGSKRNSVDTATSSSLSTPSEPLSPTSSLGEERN
# hGYS1 enzyme (recombinant hGYS1/GN1 protein), sequence (P46976 whole entry partner): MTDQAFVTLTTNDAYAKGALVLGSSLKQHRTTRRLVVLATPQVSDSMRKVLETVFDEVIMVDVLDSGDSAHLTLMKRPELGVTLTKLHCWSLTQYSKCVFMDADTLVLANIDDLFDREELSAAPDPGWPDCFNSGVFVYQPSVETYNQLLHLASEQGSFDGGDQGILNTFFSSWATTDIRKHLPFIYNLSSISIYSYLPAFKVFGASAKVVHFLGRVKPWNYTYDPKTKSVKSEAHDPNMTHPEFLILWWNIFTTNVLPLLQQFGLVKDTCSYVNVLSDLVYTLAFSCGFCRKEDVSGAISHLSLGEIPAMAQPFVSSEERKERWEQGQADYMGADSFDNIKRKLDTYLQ
IC50 [1] [nM],"IC50 ([2]; Homo sapiens, HeLa, 24 h) [nM]",IC50 [2] [nM],SMILES
16,710,–,"CCn1cccc(CC(=O)N2C[C@H](F)C[C@H]2C(=O)N[C@@H](c2ccccc2)c2ccc(C3CC3)c(F)n2)c1=O [Compound 741, (2S,4R)-N-[(S)-(5-cyclopropyl-6-fluoropyridin-2-yl)(phenyl)methyl]-1-[2-(1-ethyl-2-oxo-1,2-dihydropyridin-3-yl)acetyl]-4-fluoropyrrolidine-2-carboxamide]"
9,370,–,"CC(C)c1ccc([C@@H](NC(=O)[C@@H]2C[C@@H](F)CN2C(=O)Cc2c[nH]c(=O)cn2)c2ccccc2)nc1F [Compound 802, (2S,4R)-4-fluoro-N-[(S)-[6-fluoro-5-(propan-2-yl)pyridin-2-yl](phenyl)methyl]-1-[2-(5-oxo-4,5-dihydropyrazin-2-yl)acetyl]pyrrolidine-2-carboxamide]"
> 10000,–,> 10000,"O=C(NC(c1ccccc1)c1ccc(C2CC2)cn1)[C@@H]1C[C@@H](F)CN1C(=O)Cc1cnn[nH]1 (single isomer, unassigned) [Compound 498, (2S,4R)-1-(2-(1H-1,2,3-triazol-5-yl)acetyl)-N—((R) or (S)-(5-cyclopropylpyridin-2-yl)(phenyl)methyl)-4-fluoropyrrolidine-2-carboxamide]"
2360,> 30000,–,"CC(C)c1ccc(C(NC(=O)[C@@H]2C[C@@H](F)CN2C(=O)Cc2cnn[nH]2)c2ccccc2)cc1C(F)(F)F (single isomer, unassigned) [Compound 683, (2S,4R)-4-fluoro-N-[(S) or (R)-phenyl[4-(propan-2-yl)-3-(trifluoromethyl)phenyl]methyl]-1-[2-(1H-1,2,3-triazol-5-yl)acetyl]pyrrolidine-2-carboxamide]"
349,2090,–,"CC(=O)N1C[C@H]2CC[C@H](C(=O)N3C[C@H](F)C[C@H]3C(=O)N[C@@H](c3ccccc3)c3ccc(C(C)C)cc3)[C@H]2C1 [Compound 177, (2S,4R)-1-[(3aS,4S,6aS)-2-acetyl-octahydrocyclopenta[c]pyrrole-4-carbonyl]-4-fluoro-N-[(S)-phenyl[4-(propan-2-yl)phenyl]methyl]pyrrolidine-2-carboxamide]"
1060,–,> 10000,"Cc1cc(C(NC(=O)[C@@H]2C[C@@H](F)CN2C(=O)Cc2cnn[nH]2)c2ccccc2)cc(F)c1C(C)C (single isomer, unassigned) [Compound 678, (2S,4R)-4-fluoro-N-[(R) or (S)-[3-fluoro-5-methyl-4-(propan-2-yl)phenyl](phenyl)methyl]-1-[2-(1H-1,2,3-triazol-5-yl)acetyl]pyrrolidine-2-carboxamide]"
461,3700,–,"CC(=O)N1C[C@@H]2C[C@@H]2[C@H]1C(=O)N[C@@H](c1ccccc1)c1ccc(C(C)C)cc1 [Compound 201, (1S,2S,5R)-3-acetyl-N-[(S)-phenyl[4-(propan-2-yl)phenyl]methyl]-3-azabicycl[3.1.0]hexane-2-carboxamide]"
100,1770,–,"CCn1cc(N(C)CC(=O)N2C[C@H](F)C[C@H]2C(=O)N[C@@H](c2ccccc2)c2ccc(C3CC3)c(F)c2)nn1 [Compound 473, (2S,4R)-N-[(S)-(4-cyclopropyl-3-fluorophenyl)(phenyl)methyl]-1-{2-[(1-ethyl-1H-1,2,3-triazol-4-yl)(methyl)amino]acetyl}-4-fluoropyrrolidine-2-carboxamide]"
915,> 10000,–,"CC(=O)N(C)[C@H](C)C(=O)N1C[C@H](F)C[C@H]1C(=O)N[C@@H](c1ccccc1)c1ccc(C(C)C)cc1 [Compound 145, (2S,4R)-4-fluoro-1-[(2R)-2-(N-methylacetamido)propanoyl]-N-[(S)-phenyl[4-(propan-2-yl)phenyl]methyl]pyrrolidine-2-carboxamide]"

# The remaining lines, values behind:
SMILES,IC50 [1] [nM],"IC50 ([2]; Homo sapiens, HeLa, 24 h) [nM]",IC50 [2] [nM]
"Cc1cc(C(F)F)n(CC(=O)N2C[C@H](F)C[C@H]2C(=O)N[C@@H](c2ccccc2)c2ccc(C(C)C)c(F)n2)n1 [Compound 803, (2S,4R)-1-{2-[5-(difluoromethyl)-3-methyl-1H-pyrazol-1-yl]acetyl}-4-fluoro-N-[(S)-[6-fluoro-5-(propan-2-yl)pyridin-2-yl](phenyl)methyl] pyrrolidine-2-carboxamide]",4,80,–
"O=C(N[C@@H](c1ccccc1)c1ccc(C2CC(F)(F)C2)cn1)[C@@H]1C[C@@H](F)CN1C(=O)Cc1nc(C(F)(F)F)co1 [Compound 543, (2S,4R)-N-[(S)-[5-(3,3-difluorocyclobutyl)pyridin-2-yl](phenyl)methyl]-4-fluoro-1-{2-[4-(trifluoromethyl)-1,3-oxazol-2-yl]acetyl}pyrrolidine-2-carboxamide]",49,610,–
"Cc1cc(C(F)F)nn1CC(=O)N1C[C@H](F)C[C@H]1C(=O)N[C@@H](c1ccccc1)c1ccc(C2CC2)c(F)n1 [Compound 752, (2S,4R)-N-[(S)-(5-cyclopropyl-6-fluoropyridin-2-yl)(phenyl)methyl]-1-{2-[3-(difluoromethyl)-5-methyl-1H-pyrazol-1-yl]acetyl}-4-fluoropyrrolidine-2-carboxamide]",21,640,–
"CCOc1ncc(CC(=O)N2C[C@H](F)C[C@H]2C(=O)N[C@@H](c2ccccc2)c2ccc(C3CC(F)(F)C3)c(F)n2)cc1C [Compound 524, (2S,4R)-N-[(S)-[5-(3,3-difluorocyclobutyl)-6-fluoropyridin-2-yl](phenyl)methyl]-1-[2-(6-ethoxy-5-methylpyridin-3-yl)acetyl]-4-fluoropyrrolidine-2-carboxamide]",6,190,–
"CC1(c2ccc([C@@H](NC(=O)[C@@H]3C[C@@H](F)CN3C(=O)Cc3cnn[nH]3)c3cccnc3)cc2F)CC1 [Compound 559, (2S,4R)-4-fluoro-N-[(R)-[3-fluoro-4-(1-methylcyclopropyl)phenyl](pyridin-3-yl)methyl]-1-[2-(1H-1,2,3-triazol-5-yl)acetyl]pyrrolidine-2-carboxamide]",1580,> 22100,–
"CC(C)(C)OC(=O)n1c(CC(=O)N2C[C@H](F)C[C@H]2C(=O)N[C@@H](c2ccccc2)c2ccc(C3(C)CC3)c(F)n2)cc2ccccc21 [Compound 601, tert-butyl 2-{2-[(2S,4R)-4-fluoro-2-{[(S)-[6-fluoro-5-(1-methylcyclopropyl)pyridin-2-yl](phenyl)methyl]carbamoyl}pyrrolidin-1-yl]-2-oxoethyl}-1H-indole-1-carboxylate]",34,710,–
"CCn1cc(C)cc(CC(=O)N2C[C@H](F)C[C@H]2C(=O)N[C@@H](c2ccccc2)c2ccc(C(C)C)c(F)n2)c1=O [Compound 799, (2S,4R)-1-[2-(1-ethyl-5-methyl-2-oxo-1,2-dihydropyridin-3-yl)acetyl]-4-fluoro-N-[(S)-[6-fluoro-5-(propan-2-yl)pyridin-2-yl](phenyl)methyl] pyrrolidine-2-carboxamide]",4,100,–
"Cn1c(=O)[nH]c2c(C(NC(=O)[C@@H]3C[C@@H](F)CN3C(=O)Cc3cnn[nH]3)c3ccc(C4CC4)c(F)c3)cccc21 (single isomer, unassigned) [Compound 650, (2S,4R)-N-[(R) or (S)-(4-cyclopropyl-3-fluorophenyl)(1-methyl-2-oxo-2,3-dihydro-1H-1,3-benzodiazol-4-yl)methyl]-4-fluoro-1-[2-(1H-1,2,3-triazol-5-yl)acetyl]pyrrolidine-2-carboxamide]",1440,> 10000,–
